According to patent publication US12077503B2, “Substituted cyclic amides and their use as herbicides” (FMC CORPORATION, priority 2015, dated 2024):

What was measured:
Type in all cases: in vivo
[1] = test system: ragweed (common ragweed, Ambrosia elatior); experiment: Test A postemergence; conditions: Ambrosia artemisiifolia, post-emergence, 240 h; for pest or weed control at 125 g/ha: 125 g ai/ha, postemergence, visual injury on 0 to 100 scale (0 no effect, 100 complete control), approx. 10 d, read-out: Ragweed plant response rating; for pest or weed control at 31 g/ha: Postemergence, 31 g ai/ha, visual injury after approx. 10 d, 0 to 100 scale, 0 no effect, 100 complete control, read-out: Plant response rating, Ragweed
Method in brief: (§1)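 Each rating is a visual injury score from 0 to 100 given about 10 d after treatment, judged against untreated controls kept alongside in the greenhouse. In loam soil–sand blend, seeds got a preemergence directed soil spray, while postemergence plants were 2 to 10 cm tall at spraying.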

[2] = test system: corn (Zea mays); experiment: Test A postemergence; conditions: Zea mays, post-emergence, 240 h; for plant injury at 125 g/ha: 125 g ai/ha, postemergence, visual injury on 0 to 100 scale (0 no effect, 100 complete control), approx. 10 d, read-out: Corn plant response rating; for Corn plant response rating (crop injury, 0 = no effect, 100 = complete kill) at 31 g/ha: Postemergence, 31 g ai/ha, visual injury after approx. 10 d, 0 to 100 scale, 100 complete control
Method in brief: as §1

[3] = test system: blackgrass (Alopecurus myosuroides); experiment: Test A postemergence; conditions: Alopecurus myosuroides, post-emergence, 240 h; for pest or weed control at 125 g/ha: 125 g ai/ha, postemergence, visual injury on 0 to 100 scale (0 no effect, 100 complete control), approx. 10 d, read-out: Blackgrass plant response rating; for pest or weed control at 31 g/ha: Postemergence, 31 g ai/ha, visual injury after approx. 10 d, 0 to 100 scale, 0 no effect, 100 complete control, read-out: Plant response rating, Blackgrass
Method in brief: as §1

[4] = test system: Galium (catchweed bedstraw, Galium aparine); experiment: Test A postemergence; conditions: Galium, post-emergence, 240 h; for pest or weed control at 125 g/ha: 125 g ai/ha, postemergence, visual injury on 0 to 100 scale (0 no effect, 100 complete control), approx. 10 d, read-out: Galium plant response rating; for pest or weed control at 31 g/ha: Postemergence, 31 g ai/ha, visual injury after approx. 10 d, 0 to 100 scale, 0 no effect, 100 complete control, read-out: Plant response rating, Galium
Method in brief: as §1

[5] = test system: ryegrass, Italian (Italian ryegrass, Lolium multiflorum); experiment: Test A postemergence; conditions: Lolium multiflorum, post-emergence, 240 h; for pest or weed control at 125 g/ha: 125 g ai/ha, postemergence, visual injury on 0 to 100 scale (0 no effect, 100 complete control), approx. 10 d, read-out: Ryegrass, Italian plant response rating; for pest or weed control at 31 g/ha: Postemergence, 31 g ai/ha, visual injury after approx. 10 d, 0 to 100 scale, 0 no effect, 100 complete control, read-out: Plant response rating, Ryegrass, Italian
Method in brief: as §1

[6] = test system: Kochia (Kochia scoparia); experiment: Test A postemergence; conditions: Bassia scoparia, post-emergence, 240 h; for pest or weed control at 125 g/ha: 125 g ai/ha, postemergence, visual injury on 0 to 100 scale (0 no effect, 100 complete control), approx. 10 d, read-out: Kochia plant response rating; for pest or weed control at 31 g/ha: Postemergence, 31 g ai/ha, visual injury after approx. 10 d, 0 to 100 scale, 0 no effect, 100 complete control, read-out: Plant response rating, Kochia
Method in brief: as §1

[7] = test system: pigweed (Amaranthus retroflexus); experiment: Test A postemergence; conditions: Amaranthus retroflexus, post-emergence, 240 h; for pest or weed control at 125 g/ha: 125 g ai/ha, postemergence, visual injury on 0 to 100 scale (0 no effect, 100 complete control), approx. 10 d, read-out: Pigweed plant response rating; for pest or weed control at 31 g/ha: Postemergence, 31 g ai/ha, visual injury after approx. 10 d, 0 to 100 scale, 0 no effect, 100 complete control, read-out: Plant response rating, Pigweed
Method in brief: as §1

[8] = test system: barnyardgrass (Echinochloa crus-galli); experiment: Test A postemergence; conditions: Echinochloa crus-galli, post-emergence, 240 h; for pest or weed control at 125 g/ha: 125 g ai/ha, postemergence, visual injury on 0 to 100 scale (0 no effect, 100 complete control), approx. 10 d, read-out: Barnyardgrass plant response rating; for pest or weed control at 31 g/ha: Postemergence, 31 g ai/ha, visual injury after approx. 10 d, 0 to 100 scale, 0 no effect, 100 complete control, read-out: Plant response rating, Barnyardgrass
Method in brief: as §1

[9] = test system: wheat (Triticum aestivum); experiment: Test A postemergence; conditions: Triticum aestivum, post-emergence, 240 h; for plant injury at 125 g/ha: 125 g ai/ha, postemergence, visual injury on 0 to 100 scale (0 no effect, 100 complete control), approx. 10 d, read-out: Wheat plant response rating; for plant injury at 31 g/ha: Postemergence, 31 g ai/ha, visual injury after approx. 10 d, 0 to 100 scale, 0 no effect, 100 complete control, read-out: Plant response rating, Wheat
Method in brief: as §1

[10] = test system: giant foxtail (Setaria faberii); experiment: Test A postemergence; conditions: Setaria faberi, post-emergence, 240 h; for pest or weed control at 125 g/ha: 125 g ai/ha, postemergence, visual injury on 0 to 100 scale (0 no effect, 100 complete control), approx. 10 d, read-out: Foxtail, Giant plant response rating; for pest or weed control at 31 g/ha: Postemergence, 31 g ai/ha, visual injury after approx. 10 d, 0 to 100 scale, 0 no effect, 100 complete control, read-out: Plant response rating, Foxtail, Giant
Method in brief: as §1

[11] = test system: sedge, umbrella (small-flower umbrella sedge, Cyperus difformis); experiment: Test B flooded paddy test; conditions: Cyperus difformis, 250 g ai/ha, Flood; 0 to 100 scale where 0 is no effect and 100 is complete control; read-out: Sedge, Umbrella plant response rating
Method in brief: (§2)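 Visual ratings (0 none to 100 complete control) are relative to untreated plants, taken 13–15 d after treatment in a greenhouse. Test material went straight into floodwater standing 3 cm above the soil, kept constant, on plants at the 2-leaf stage.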

[12] = test system: ducksalad (Heteranthera limosa); experiment: Test B flooded paddy test; conditions: Heteranthera limosa, 250 g ai/ha, Flood; 0 to 100 scale where 0 is no effect and 100 is complete control; read-out: Ducksalad plant response rating
Method in brief: as §2

[13] = test system: rice (Oryra sativa); experiment: Test B flooded paddy test; conditions: Oryza sativa, 250 g ai/ha, Flood; 0 to 100 scale where 0 is no effect and 100 is complete control; read-out: Rice plant response rating
Method in brief: as §2

[14] = test system: barnyardgrass (Echinochloa crus-galli); experiment: Test B flooded paddy test; conditions: Echinochloa crus-galli, 250 g ai/ha, Flood; 0 to 100 scale where 0 is no effect and 100 is complete control; read-out: Barnyardgrass plant response rating
Method in brief: as §2

[15] = test system: ragweed (common ragweed, Ambrosia elatior); experiment: Test A preemergence; conditions: Ambrosia artemisiifolia, pre-emergence, 240 h, 0 to 100 scale where 0 is no effect and 100 is complete control, read-out: Ragweed plant response rating; for pest or weed control at 31 g/ha: 31 g ai/ha, Preemergence; for pest or weed control at 125 g/ha: 125 g ai/ha, preemergence, approx. 10 d
Method in brief: as §1

[16] = test system: ryegrass, Italian (Italian ryegrass, Lolium multiflorum); experiment: Test A preemergence; conditions: Lolium multiflorum, pre-emergence, 240 h, 0 to 100 scale where 0 is no effect and 100 is complete control, read-out: Ryegrass, Italian plant response rating; for pest or weed control at 31 g/ha: 31 g ai/ha, Preemergence; for pest or weed control at 125 g/ha: 125 g ai/ha, preemergence, approx. 10 d
Method in brief: as §1

[17] = test system: Kochia (Kochia scoparia); experiment: Test A preemergence; conditions: Bassia scoparia, pre-emergence, 240 h, 0 to 100 scale where 0 is no effect and 100 is complete control, read-out: Kochia plant response rating; for pest or weed control at 31 g/ha: 31 g ai/ha, Preemergence; for pest or weed control at 125 g/ha: 125 g ai/ha, preemergence, approx. 10 d
Method in brief: as §1

[18] = test system: pigweed (Amaranthus retroflexus); experiment: Test A preemergence; conditions: Amaranthus retroflexus, pre-emergence, 240 h, 0 to 100 scale where 0 is no effect and 100 is complete control, read-out: Pigweed plant response rating; for pest or weed control at 31 g/ha: 31 g ai/ha, Preemergence; for pest or weed control at 125 g/ha: 125 g ai/ha, preemergence, approx. 10 d
[19] = test system: barnyardgrass (Echinochloa crus-galli); experiment: Test A preemergence; conditions: Echinochloa crus-galli, pre-emergence, 240 h, 0 to 100 scale where 0 is no effect and 100 is complete control, read-out: Barnyardgrass plant response rating; for pest or weed control at 31 g/ha: 31 g ai/ha, Preemergence; for pest or weed control at 125 g/ha: 125 g ai/ha, preemergence, approx. 10 d
Method in brief: as §1

[20] = test system: giant foxtail (Setaria faberii); experiment: Test A preemergence; conditions: Setaria faberi, pre-emergence, 240 h, 0 to 100 scale where 0 is no effect and 100 is complete control, read-out: Foxtail, Giant plant response rating; for pest or weed control at 31 g/ha: 31 g ai/ha, Preemergence; for pest or weed control at 125 g/ha: 125 g ai/ha, preemergence, approx. 10 d
Method in brief: as §1

| Structure (SMILES) | pest or weed control at 125 g/ha [1] | pest or weed control at 31 g/ha [1] | plant injury at 125 g/ha [2] | Corn plant response rating (crop injury, 0 = no effect, 100 = complete kill) at 31 g/ha [2] | pest or weed control at 125 g/ha [3] | pest or weed control at 31 g/ha [3] | pest or weed control at 125 g/ha [4] | pest or weed control at 31 g/ha [4] | pest or weed control at 125 g/ha [5] | pest or weed control at 31 g/ha [5] | pest or weed control at 125 g/ha [6] | pest or weed control at 31 g/ha [6] | pest or weed control at 125 g/ha [7] | pest or weed control at 31 g/ha [7] | pest or weed control at 125 g/ha [8] | pest or weed control at 31 g/ha [8] | plant injury at 125 g/ha [9] | plant injury at 31 g/ha [9] | pest or weed control at 125 g/ha [10] | pest or weed control at 31 g/ha [10] | other results |
| --- | --- | --- | --- | --- | --- | --- | --- | --- | --- | --- | --- | --- | --- | --- | --- | --- | --- | --- | --- | --- | --- |
| CON1CC[C@H](c2ccc(C(F)(F)F)cc2)[C@@H](C(=O)Nc2ccc(F)c(F)c2F)C1=O [Compound 1107] | 0% | 0% | 0% | 0% | 0% | 0% | 0% | 0% | 0% | 0% | 0% | 0% | 0% | 0% | 0% | 0% | 0% | 0% | 0% | 0% | pest or weed control at 250 g/ha [11]: 0%; pest or weed control at 250 g/ha [12]: 80%; pest or weed control at 250 g/ha [13]: 0%; pest or weed control at 250 g/ha [14]: 0%; pest or weed control at 31 g/ha [15]: 0%; pest or weed control at 125 g/ha [15]: 0%; pest or weed control at 31 g/ha [16]: 0%; pest or weed control at 125 g/ha [16]: 0%; pest or weed control at 31 g/ha [17]: 0%; pest or weed control at 125 g/ha [17]: 0%; pest or weed control at 31 g/ha [18]: 0%; pest or weed control at 125 g/ha [18]: 0%; pest or weed control at 31 g/ha [19]: 0%; pest or weed control at 125 g/ha [19]: 0%; pest or weed control at 31 g/ha [20]: 0%; pest or weed control at 125 g/ha [20]: 0% |
| CN1C[C@H](c2csc3c2CCC3)[C@@H](C(=O)Nc2ccc(F)c(F)c2F)C1=O [Compound 1081] | 0% | 0% | 20% | 0% | 0% | 0% | 20% | 0% | 0% | 0% | 0% | 0% | 0% | 0% | 90% | 30% | 20% | 0% | 80% | 10% | pest or weed control at 250 g/ha [11]: 0%; pest or weed control at 250 g/ha [12]: 80%; pest or weed control at 250 g/ha [13]: 40%; pest or weed control at 250 g/ha [14]: 90%; pest or weed control at 31 g/ha [15]: 0%; pest or weed control at 125 g/ha [15]: 0%; pest or weed control at 31 g/ha [16]: 0%; pest or weed control at 125 g/ha [16]: 0%; pest or weed control at 31 g/ha [17]: 20%; pest or weed control at 125 g/ha [17]: 30%; pest or weed control at 31 g/ha [18]: 0%; pest or weed control at 125 g/ha [18]: 0%; pest or weed control at 31 g/ha [19]: 10%; pest or weed control at 125 g/ha [19]: 90%; pest or weed control at 31 g/ha [20]: 100%; pest or weed control at 125 g/ha [20]: 100% |
